Experimental data published in US20260285924A1, “PEPTIDE THERAPEUTICS” (priority 2023, published 2026).

How the values were obtained:
Format in all cases: cell-based, human
[1] = test system: A375-WT; experiment: Validation assay: cell growth (CCK8, 48 hours after plating) of cells transduced with single peptide tiles; conditions: peptide overexpression
Description: FIGS. 9A-9C. (A) Fitness screen validation assay workflow. (B) Validation assay results (C) Fitness screen results.
(§1) FIGS. 14A-14E show PiTiles derived from DNA-binding domains of MYC and SOX17 inhibit transcriptional program. (A) Experimental workflow of A375 cell line individually transduced with lentivirus expressing GFP_147, MYC_384 or SOX17_96. 5 days post-transductions, RNA was harvested for RNA sequencing. Additionally, cells were plated for a 48-hour growth assay. (B) Cell growth of A375 cell line expressing GFP_147 (control), MYC_384 and SOX17_96. […] Red bar=FDR<0.05. We observe a negative peak in bHLHzip domain of MYC as well as HMG box domain of SOX17. Both domains mediated binding to DNA. (D) Principal Component Analysis of RNA-sequencing for both biological replicates of GFP_147, MYC_384 and SOX17_96 expressing cell lines. (E) A375 RNAseq data was analyzed using Gene Set Enrichment Analysis. For MYC_384 versus GFP_147 over ODONNEL_TARGET_OF_MYC_and_TFRC. For SOX17_96 versus GFP_147 over PRANMOOJAGO_SOX4.
All those selected hits mapped to a known protein domain with known roles in protein-protein interaction or protein-DNA interaction. […] When the fold change of every tile on the protein amino acid positions was mapped, functional regions of the protein affecting cell growth were identified. For example, on RAF1, peaks corresponding to the Ras-binding domain (RBD) were identified, and the kinase domain (FIG. 8A). […] In addition, a region of MYC that affect cell growth was identified and mapped on the DNA binding domain bHLH (FIG. 8). […] To validate the results from the screen, A375-WT and -NRAS^Q61K were transduced with GFP_147, or RAF1_78, MYC_384, or KIT_499, or SOS_120 tiles and cell growth measured using CCK8 assay
48 hours after plating (FIG. 9A). […] The CR2 domain of BRAF contain a 14-3-3 binding site and play a role in BRAF-MEK autoinhibitory complex which regulates MAPK pathway activation. One of the goals of this contextual PepTile screen was to identify peptides that would impair growth of NRAS cell line but not the parental, to address overall NRAS-driven drug resistance. For instance, more than 6000 peptide hits were detected that are exclusive to A375-NRAS^Q61K (FIG. 6). For example, ARHGAP20 and ARHGAP26 show a very different PepTile profiles between A375-NRAS^Q61K and A375-WT (FIG. 11) and seem to have more of an effect in the A375-NRAS^Q61K condition. Altogether, the Pan-Cancer PepTile screen show the potential of finding new potential peptides to target NRAS melanoma, as well as mapping protein domains involved in cellular growth in a given context.

[2] = test system: A375-WT; experiment: Pan-Cancer PepTile/PiTile fitness screen (lentiviral 40-mer peptide library, NGS abundance); parameters: key: enrichment of each peptide's NGS abundance, early day vs Day 14; conditions: Pan-Cancer library, peptide enrichment day 14 vs day 0
Description: FIGS. 13A-13D show Pan-Cancer PiTile Workflow. (A) The Pan-Cancer peptide library is composed of 1081 proteins tiled into 40-mer peptides at every 6 amino acids of the parental protein. The DNA-encoded library is cloned into lentiviral vectors and packaged into lentivirus. (B) A375 cell line was transduced with the Pan-Cancer PiTile library. Genomic DNA was then harvested at Day2 and Day 14 post-transduction and cell populations abundance expressing the different peptides were quantified using Next-Generation Sequencing (NGS). Peptide fitness score was then calculated by the abundance of each peptide at Day2 versus Day 14. Then the fitness signal is mapped over the original amino acid positions of the derived protein. (C) Coverage of the plasmid Pan-Cancer library and peptide-amplicons from Day2 and Day 14 replicated was determined by NGS. (D) Dot plot of the experimental result obtain from screening the Pan-Cancer library in A375 cell line.
(§2) A peptide tilling screen was performed in A375 similarly to a screen done in MDA-MB-231 (FIG. 1) but with a different lentiviral library. The library (Pan-Cancer library) is composed of 1020 genes tiled every 6 amino acids into 40-mer amino acid long peptides. The gene selection was based on their implication in oncogenesis either being as oncogenes or tumor suppressors. The list was built using recent literature that identified new cancer drivers as well as databases such as Uniprot keywords (KW-0656: Proto-oncogene, KW-0043: Tumor suppressor), and Gene Ontology terms (GO1900117: Apoptosis, GO1901979: Cell cycle checkpoint) (FIG. 2). Aside from Human genes, a list of viral genes was also included (KW-1121: Modulation of host cell cycle by virus) that play roles in high jacking cell cycle progression and thus in oncogenesis (FIG. 2).
(§3) The model of study is melanoma, and this disease is stratified into 4 molecular subtypes, BRAF mutants, NRAS mutants, KIT amplification, NF1 mutations (FIG. 3A). The most prominent mutations found in patient affected with metastatic melanomas are BRAF^V600E and NRAS^Q61K (FIG. 3B). RAS play a key role in oncogenesis and resistance to treatments. Indeed, RAS activating mutations is found in ~20% of all human cancers and secondary NRAS mutation leads to acquired resistance to BRAF targeted therapy such as vemurafenib. Thus, the screen was performed in an A375 cell line model which derived from human BRAF^V600E melanoma as well as an engineered A375 transduced with HA-NRAS^Q61K (FIG. 4A, B). Both cell lines grow at a similar rate but the A375-NRAS^Q61K display more than 10-fold resistance to vemurafenib treatment compared to parental A375 (FIG. 4C, D).
(§4) These cells were transduced with the Pan-Cancer library at a low multiplicity of infection (MOI=0.1-0.3). Then, genomic DNA was extracted at day 0 and day 14 post-transduction to quantify the abundance of peptide for each temporal conditions using Next-generation sequencing. Each experimental replicates were deep sequenced with at least 150 million reads and show a coverage between 82-90% of the initial Pan-Cancer Peptide library (FIG. 5). Then, for each individual peptides a cellular fitness score was calculated based on their enrichment between day 0 and day 14. 8090 peptides negatively affecting growth of A375-WT were identified and 8153 peptides for the A375-NRAS^Q61K cell line (FIG. 6). […] Those common hits are found to be tiles from ~100 genes of the Pan-Cancer gene list and show a substantial biological function clustering.
We built a DNA-encoded peptide library composed of all known Human oncogenes and Tumor Suppressors that we fragmented in 40 amino acid long peptides, the Pan-Cancer library. Using lentiviral expression system, we transduced the Pan-Cancer library in A375 cell line. After 14 days of growth, the frequency of each peptide is measured by NGS and this reveal which peptides affect cell fitness. […]

[3] = test system: SOX17 transcriptional program (PRANMOOJAGO_SOX4); experiment: RNA-sequencing GSEA of A375 expressing SOX17_96 versus GFP_147; conditions: 5 days post-transduction
Description: as §1

[4] = test system: A375-NRAS^Q61K; experiment: Pan-Cancer PepTile fitness screen (lentiviral 40-mer peptide library, NGS abundance); conditions: peptide enrichment day 14 vs day 0
Description: as §2, §3, §4

Substance: SOX17_17: 40-mer peptide tile of SOX17, AA start position 96, HMG box
- cell growth compared to GFP_147 [1]: cell growth defect
- A375-WT Fitness Score [2]: −4.49
- GSEA of SOX17 transcriptional program [3]: downregulation of their respective transcriptional programs
- A375-NRAS Fitness Score [4]: −0.77
